Test results as given in patent US20260216214A1, “ANALGESIC COMPOSITIONS, METHOD OF MANUFACTURE AND USES THEREOF” (University of Connecticut, priority 2022, published 2026).
Entries after “also recorded” stand apart in the source; their conditions may differ. Where a name gives a salt, the structure may show the parent alone.

Tests used:
[1] = tested on: LPS activated macrophages; assay: Cytokine gene expression by RT-PCR in LPS activated bone marrow macrophages; type: cell-based; details: PEA 50 μM in DMSO, LPS 200 ng/ml, 24 hours; versus LPS alone
Method: Bone marrow macrophages were cultured for 24 hours, followed by treatment with lipopolysaccharides (LPS) from Escherichia coli O111:B4 (to activate macrophages) and the endocannabinoid molecule, dissolved in dimethyl sulfoxide (DMSO). After 24 hours of treatment, the cells are lysed, and the RNA collected. Gene expression is determined using RT-PCR. The expression of inflammatory cytokines such as Tumor Necrosis Factor Alpha (TNF-α), Interleukin-1-Beta […] and Interleukin-6 are used to determine the anti-inflammatory effect of the endocannabinoid solution. For example, macrophages were cultured for 24 hours and treated with LPS (200 ng/ml) and PEA (50 μM). After 24 hours, cells were lysed, and the RNA collected.
Bone marrow macrophages are cultured for 24 hours, followed by treatment with lipopolysaccharides (to activate macrophages) and the endocannabinoid dissolved in DMSO or endocannabinoid nanoparticle formulation at the same concentration. 24 hours after treatment, the cells were lysed, and the RNA collected. Gene expression is determined using RT-PCR. The expression of inflammatory cytokines such as Tumor Necrosis Factor Alpha (TNF-α), and Interleukin-1-Beta (IL1β) is used to determine the anti-inflammatory effect of the endocannabinoid solution.

[2] = tested on: female Sprague Dawley Rats injected with mono-iodoacetate to induce OA; assay: Paw withdrawal threshold with Electronic Von Frey in MIA induced OA rats (Examples 8-9); type: in vivo, rat
Method: This example was conducted to determine in-vivo pain response. […] Pain response was assessed using Von Frey filaments that measure mechanical allodynia. Paw withdrawal threshold was measured using Electronic Von Frey [IITC]. For example, female Sprague Dawley Rats were injected with 30 μL of mono-iodoacetate solution to induce OA. […] The results were compared to rodents with 2 injections of bupivacaine HCl in 0.9% saline (1.5 mg/ml) in those specific periarticular locations. […] FIG. 10 depicts electronic Von Frey measurements done with treatment groups using bupivacaine HCL periarticularly injected at 2 locations alone and periarticular injection of PEA nanoparticles with bupivacaine HCL at 2 locations.
This example was conducted to determine the effect of increasing the dosage of the local anesthetic as commonly 5 mg/mL bupivacaine is used clinically. […] For example, female Sprague Dawley Rats were injected with 30 μL of mono-iodoacetate solution (MIA) to induce OA.
Pain response was measured using Von Frey measurements. […] The PEA nanoparticles with high dose of bupivacaine HCL extended pain relief more than 4 weeks compared to a few hours in the high dose bupivacaine HCL alone group. […]

[3] = tested on: female Sprague Dawley Rats injected with mono-iodoacetate to induce OA; assay: Joint diameter (vernier caliper) as measure of joint inflammation in MIA induced OA rats; type: in vivo, rat; details: periarticular, bupivacaine HCl 1.5 mg/ml, 50 μL/location
Method: This example was conducted to determine in-vivo inflammation. […] The joint inflammation is assessed via vernier caliper measurements. For example, female Sprague Dawley Rats were injected with 30 μL of mono-iodoacetate solution to induce OA. […] The injections were done under X-ray guidance using a C-arm for increased precision. Inflammation was assessed using a vernier caliper at the knee joint. […] Vernier caliper measurements show reduced inflammation in the bupivacaine+PEA nanoparticles group compared to the bupivacaine HCL only group at day 3 and day 7. At day 7, the inflammation in the bupivacaine+PEA nanoparticles group is not different from the baseline. At day 3, the inflammation in the bupivacaine HCl only group is higher than the MIA group. Statistical tests were conducted using only one way ANOVA with Brown Forsythe and Welsh tests.
FIG. 9 is a graph depicting joint diameter upto 21 days. […] The treatment groups are high does of bupivacaine HCl at 1 location (N=4), periarticular PEA nanoparticles at 2 locations +high does bupivacaine HCL at 1 location (N=5) with control of MIA (3 mg; N=6). The treatment groups with PEA nanoparticles show anti-inflammatory effects for 3 weeks. Statistical tests were conducted using only one way ANOVA with Brown Forsythe and Welsh tests.

MIA induced OA rats = assay: Paw withdrawal threshold with Von Frey filaments in MIA induced OA rats (Examples 1-2); type: in vivo, rat
Source text: Von Frey data typically refers to experimental data collected using the von Frey filaments or hairs, which are instruments commonly used in neuroscience and behavioral research to assess mechanical sensitivity or tactile allodynia (an increased sensitivity to touch, often associated with pain or discomfort) in animals, particularly rodents. The von Frey test involves applying calibrated filaments of varying forces to the skin of an animal, usually the hind paw of a rodent. The animal's response is overserved to determine its sensitivity to mechanical stimuli. The data collected during von Frey testing may include a) Threshold Response: The force or bending pressure at which the animal first responds to the filament. This is often referred to as the “withdrawal threshold” and is an indicator of the animal's sensitivity to touch; b) Response Frequency: The number of positive responses (e.g., paw withdrawal, licking, or shaking) to the application of the von Frey filaments. This information provides a measure of the intensity or frequency of the animal's response to the mechanical stimulus; and c) Response Latency: The time it takes for the animal to respond after the application of the von Frey filament. A shorter response latency may indicate increased sensitivity.
The injections were 50 μL each and the Bupivacaine HCL (1.5 mg/mL) was dissolved in 0.9% saline. […] FIG. 1 depicts the locations in the knee where the periarticular injections of only bupivacaine were administered.
Periarticular injections of local anesthetics into these specific locations can prolong the duration of analgesia compared to intra-articular injections into the knee joint. […]
FIG. 3 is a graph that depicts the change from the baseline pre-injury values of the animals versus time in days. […] FIG. 3 depicts the paw withdrawal threshold as measured using Von Frey filaments. in MIA induced OA rats.

SMILES	gene expression of IL6 [1]	gene expression of ILβ [1]	gene expression of TNF-α [1]	duration of pain relief ([2]; bupivacaine 3 mg/ml, 50 μL at one location (superior lateral))	hypoalgesic and analgesic efficacy on increasing the bupivacaine dose ([2]; bupivacaine increased from 1.5mg/ml to 3 mg/mL (0.15% to 0.3%), HCl)	joint diameter at day 3 [3]	duration of efficacy (analgesia) (MIA induced OA rats; intraarticular injection of same amount of bupivacaine HCL)	duration of efficacy (analgesia) (MIA induced OA rats; periarticular injection at 4 locations, 50 μL each, 1.5 mg/mL in 0.9% saline)	pain relief versus disease control (paw withdrawal threshold, change from baseline) (MIA induced OA rats; periarticular injections at 1, 2 or 4 locations)
CCCCCCCCCCCCCCCC(=O)NCCO [PEA, palmitoylethanolamide]	significantly less than in the LPS alone control group	significantly less than in the LPS alone control group	significantly less than in the LPS alone control group						
CCCCN1CCCCC1C(=O)Nc1c(C)cccc1C (stereo not drawn) [bupivacaine HCL, bupivacaine HCl]				a few hours	significant reduction in the hypoalgesic and analgesic effect; also recorded: significantly reduced the efficacy	significantly increased joint diameter or inflammation compared to the injection of MIA alone	3 days	17 days	prolonged pain relief compared to the disease control
